Measurements: PubChem BioAssay AID296 (DTP/NCI, 2004)
Where “and” joins values, the source holds several entries; their conditions need not be identical. Identical values can stand only once. Inconclusive results are not listed. *1 amine or outer side, *2 acyl side, *3 side chain or, on linkers, in order; H or OH if unused. Where a SMILES comes first, the peptide text is derived from it. Bridges are numbered along the chain shown (N, C = ends). Roman numbers before positions name the chains, in order. [ ]: non-standard residue; d: D form. Actinocin(9to1) = Cc1c2oc3c(C)ccc(C(=O)[*:1])c3nc-2c(C(=O)[*:2])c(N)c1=O; aThr = C[C@H](O)[C@H](N)C(=O)O; NMeV = CN[C@H](C(=O)O)C(C)C; Sar = CNCC(=O)O

Tested on: MX-1 breast xenograft, nude mice, tumor weight T/C
Assay: NCI In Vivo Anticancer Drug Screen. Data for tumor model Human Mammary Carcinoma MX-1 Xenograft (intrarenal inoculation) in NU/NU Swiss (nude) mice
Details: endpoint: mean tumor weight change, higher = larger tumour
Method in brief: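 Mice carrying the implanted tumor receive either test agent or vehicle. Tumor size or survival is then recorded for both groups. Results are stated as the treated-to-control quotient.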

[1] = dose: 150.0 mg/kg/injection, schedule: Q04DX003 (sc), vehicle: saline with Tween-80
[2] = dose: 300.0 mg/kg/injection, schedule: Q04DX003 (sc), vehicle: saline with Tween-80
[3] = dose: 600.0 mg/kg/injection, schedule: Q04DX003 (sc), vehicle: saline with Tween-80
[4] = dose: 1200.0 mg/kg/injection, schedule: Q04DX003 (sc), vehicle: saline with Tween-80

`O=C(NP(=O)(N1CC1)N1CC1)c1cc(I)ccc1I` was tested, and the T/C (dose: 37.5 mg/kg/injection, schedule: Q04DX003 (sc), vehicle: saline) was 23 % of control, the T/C (dose: 75.0 mg/kg/injection, schedule: Q04DX003 (sc), vehicle: suspension in saline) was -60 % of control and the T/C (dose: 150.0 mg/kg/injection, schedule: Q04DX003 (sc), vehicle: saline) was -9 % of control. The T/C (dose: 150.0 mg/kg/injection, schedule: Q04DX003 (sc), vehicle: suspension in saline) was 11 % of control, the T/C (dose: 300.0 mg/kg/injection, schedule: Q04DX003 (sc), vehicle: saline) was -100 % of control and the T/C (dose: 300.0 mg/kg/injection, schedule: Q04DX003 (sc), vehicle: suspension in saline) was -27 % of control. The T/C (dose: 600.0 mg/kg/injection, schedule: Q04DX003 (sc), vehicle: suspension in saline) was 2 % of control.

With `Nc1ccn(C2OC(CO)C(O)C2O)c(=O)n1` (configuration not stated) the T/C (dose: 7.5 mg/kg/injection, schedule: Q01DX010 (sc), vehicle: water) was 53 % of control, the T/C (dose: 7.81 mg/kg/injection, schedule: Q01DX010 (sc), vehicle: water) was 62 % of control and the T/C (dose: 15.0 mg/kg/injection, schedule: Q01DX010 (sc), vehicle: water) was 27 % of control. For the same compound, the T/C (dose: 15.63 mg/kg/injection, schedule: Q01DX010 (sc), vehicle: water) was 28 % of control and 30 % of control, the T/C (dose: 30.0 mg/kg/injection, schedule: Q01DX010 (sc), vehicle: water) was 18 % of control and the T/C (dose: 31.25 mg/kg/injection, schedule: Q01DX010 (sc), vehicle: water) was 9 % of control and 12 % of control. For the same compound, the T/C (dose: 60.0 mg/kg/injection, schedule: Q01DX010 (sc), vehicle: water) was 9 % of control and the T/C (dose: 600.0 mg/kg/injection, schedule: Q04DX003 (sc), vehicle: water) was 41 % of control.

For `[I][Hg][CH2]C1OCCOC1[CH2][Hg][I]` (configuration not stated), the T/C (dose: 1200.0 mg/kg/injection, schedule: Q04DX003 (sc), vehicle: Klucel (hydroxypropylcellulose) (HPC)) was 77 % of control and the T/C (dose: 2400.0 mg/kg/injection, schedule: Q04DX003 (sc), vehicle: Klucel (hydroxypropylcellulose) (HPC)) was 98 % of control.

With `Nc1ncnc2c1ncn2C1C=C(CO)C(O)C1O` (configuration not stated) the T/C (dose: 3.75 mg/kg/injection, schedule: Q04DX003 (sc), vehicle: saline) was 88 % of control, the T/C (dose: 7.5 mg/kg/injection, schedule: Q04DX003 (sc), vehicle: saline) was 75 % of control and the T/C (dose: 15.0 mg/kg/injection, schedule: Q04DX003 (sc), vehicle: saline) was 64 % of control.

`CCCCCCCCCCCC(=O)NC1CC(O[C@H]2C[C@](O)(C(=O)CO)Cc3c(O)c4c(c(O)c32)C(=O)c2c(OC)cccc2C4=O)OC(C)C1O` (some centres not stated) was tested, and the T/C (dose: 100.0 mg/kg/injection, schedule: Q01DX010 (sc), vehicle: water) was 59 % of control, the T/C (dose: 200.0 mg/kg/injection, schedule: Q01DX010 (sc), vehicle: water) was 97 % of control and the T/C (dose: 400.0 mg/kg/injection, schedule: Q01DX010 (sc), vehicle: water) was 53 % of control.

`NC(CNC(=O)CBr)C(=O)O` (configuration not stated) was tested, and the T/C (dose: 37.5 mg/kg/injection, schedule: Q04DX003 (sc), vehicle: water) was 53 % of control, the T/C (dose: 75.0 mg/kg/injection, schedule: Q04DX003 (sc), vehicle: water) was 10 % of control and 17 % of control and the T/C (dose: 100.0 mg/kg/injection, schedule: Q04DX003 (sc), vehicle: water) was 9 % of control. The T/C (dose: 150.0 mg/kg/injection, schedule: Q04DX003 (sc), vehicle: water) was 8 % of control and 13 % of control.

In the case of `COc1ccc(C[C@H](N)C(=O)NC2C(CO)OC(n3cnc4c(N(C)C)ncnc43)C2O)cc1` (some centres not stated), the T/C (dose: 100.0 mg/kg/injection, schedule: Q04DX003 (sc), vehicle: saline) is reported as 102 % of control and the T/C (dose: 200.0 mg/kg/injection, schedule: Q04DX003 (sc), vehicle: saline) is reported as 99 % of control.

With `CN=C(N)N/N=C(\C)c1ccc2c(c1)Cc1ccccc1-2` the T/C [1] was 105 % of control, the T/C [2] was 115 % of control and the T/C [3] was 105 % of control. The T/C [4] was 191 % of control.

For `Cc1c2oc3c(C)ccc(C(=O)N[C@@H]4C(=O)N[C@H](C(C)C)C(=O)N5CCC[C@H]5C(=O)N(C)CC(=O)N(C)[C@@H](C(C)C)C(=O)O[C@H]4C)c3nc-2c(C(=O)N[C@@H]2C(=O)N[C@H](C(C)C)C(=O)N3CCC[C@H]3C(=O)N(C)CC(=O)N(C)[C@@H](C(C)C)C(=O)O[C@H]2C)c(N)c1=O` (I: [aThr][dV]P[Sar][NMeV] / II: [aThr][dV]P[Sar][NMeV]; ester I:1-I:C, II:1-II:C; linker I:N-II:N via Actinocin(9to1)), the T/C (dose: 0.25 mg/kg/injection, schedule: Q04DX003 (sc), vehicle: saline) was 34 % of control, the T/C (dose: 0.5 mg/kg/injection, schedule: Q04DX003 (sc), vehicle: saline) was 11 % of control and the T/C (dose: 1.0 mg/kg/injection, schedule: Q04DX003 (sc), vehicle: saline) was -46 % of control. The T/C (dose: 50.0 micrograms/kg/injection, schedule: Q01DX010 (sc), vehicle: saline) was 76 % of control, the T/C (dose: 100.0 micrograms/kg/injection, schedule: Q01DX010 (sc), vehicle: saline) was 23 % of control and 28 % of control and 33 % of control and the T/C (dose: 200.0 micrograms/kg/injection, schedule: Q01DX010 (sc), vehicle: saline) was 1 % of control and 18 % of control.

In the case of `CC(=O)OC1COC(NC(=O)N(CCCl)N=O)C(OC(C)=O)C1OC(C)=O` (configuration not stated), the T/C (dose: 4.5 mg/kg/injection, schedule: Q04DX003 (sc), vehicle: saline with Tween-80) is reported as 105 % of control, the T/C (dose: 9.0 mg/kg/injection, schedule: Q04DX003 (sc), vehicle: saline with Tween-80) is reported as 77 % of control and the T/C (dose: 18.0 mg/kg/injection, schedule: Q04DX003 (sc), vehicle: saline with Tween-80) is reported as 110 % of control. For the same compound, the T/C (dose: 36.0 mg/kg/injection, schedule: Q04DX003 (sc), vehicle: saline with Tween-80) was 82 % of control.

With `CCN(Cc1ccc(Cl)c(Cl)c1)c1ccc2nc(N)nc(N)c2c1C` the T/C (dose: 9.38 mg/kg/injection, schedule: Q04DX003 (sc), vehicle: distilled water + Tween-80) was 93 % of control and the T/C (dose: 18.75 mg/kg/injection, schedule: Q04DX003 (sc), vehicle: distilled water + Tween-80) was 86 % of control.

For `CC1=CC(C)(C)Nc2ccc(CSc3ccccc3)cc21`, the T/C (dose: 25.0 mg/kg/injection, schedule: Q01DX010 (sc), vehicle: saline + Tween-80 + alcohol) was 85 % of control, the T/C (dose: 50.0 mg/kg/injection, schedule: Q01DX010 (sc), vehicle: saline + Tween-80 + alcohol) was 153 % of control and the T/C (dose: 100.0 mg/kg/injection, schedule: Q01DX010 (sc), vehicle: saline + Tween-80 + alcohol) was 79 % of control and 102 % of control. The T/C (dose: 200.0 mg/kg/injection, schedule: Q01DX010 (sc), vehicle: saline + Tween-80 + alcohol) was 89 % of control.

For `COc1cc([C@@H]2c3cc4c(c(O)c3C[C@H]3COC(=O)[C@@H]32)OCO4)cc(OC)c1OC`, the T/C (dose: 2.0 mg/kg/injection, schedule: Q01DX010 (sc), vehicle: saline) was 78 % of control and the T/C (dose: 4.0 mg/kg/injection, schedule: Q01DX010 (sc), vehicle: saline) was 56 % of control.

For `O=Cc1c(O)c2ccccc2[nH]c1=O`, the T/C [1] was 118 % of control, the T/C [2] was 99 % of control and the T/C [3] was 86 % of control.

With `CCOC(=O)C(CC(C)C)NC(=O)C(N)Cc1ccc(N(CCCl)CCCl)cc1` (configuration not stated) the T/C (dose: 60.0 mg/kg/injection, schedule: Q04DX003 (sc), vehicle: water) was -100 % of control.

For `O=C(NC(Cc1ccc(I)cc1)C(=O)O)c1ccc(Br)cc1` (configuration not stated), the T/C (dose: 75.0 mg/kg/injection, schedule: Q04DX003 (ip), vehicle: sodium bicarbonate) was -67 % of control.

With `Cc1ccc(S(=O)(=O)N/N=C/C(Br)=C(/Br)C(=O)O)cc1` the T/C (dose: 2.5 mg/kg/injection, schedule: Q04DX003 (sc), vehicle: saline) was 95 % of control, the T/C (dose: 5.0 mg/kg/injection, schedule: Q04DX003 (sc), vehicle: saline) was 100 % of control and the T/C (dose: 10.0 mg/kg/injection, schedule: Q04DX003 (sc), vehicle: saline) was 100 % of control. For the same compound, the T/C (dose: 20.0 mg/kg/injection, schedule: Q04DX003 (sc), vehicle: saline) was 78 % of control, the T/C (dose: 150.0 mg/kg/injection, schedule: Q04DX003 (sc), vehicle: Klucel (hydroxypropylcellulose) (HPC)) was 80 % of control and the T/C (dose: 300.0 mg/kg/injection, schedule: Q04DX003 (sc), vehicle: Klucel (hydroxypropylcellulose) (HPC)) was 71 % of control. The T/C (dose: 600.0 mg/kg/injection, schedule: Q04DX003 (sc), vehicle: Klucel (hydroxypropylcellulose) (HPC)) was 26 % of control.

For `S=c1[nH]cc2cnccn12`, the T/C [2] was 104 % of control, the T/C [3] was 97 % of control and the T/C [4] was 106 % of control.

In the case of `COc1cc2c(c(OC)c1OC)-c1ccc(OC)c(=O)cc1[C@@H](NC(C)=O)CC2`, the T/C (dose: 0.25 mg/kg/injection, schedule: Q01DX010 (sc), vehicle: saline) is reported as 94 % of control and the T/C (dose: 0.5 mg/kg/injection, schedule: Q01DX010 (sc), vehicle: saline) is reported as 30 % of control.

For `COc1ccc2c(c1)CCC(c1ccccc1)=C2c1ccc(OCCN2CCCC2)cc1`, the T/C (dose: 25.0 mg/kg/injection, schedule: Q04DX003 (sc), vehicle: Klucel (hydroxypropylcellulose) (HPC)) was 79 % of control, the T/C (dose: 50.0 mg/kg/injection, schedule: Q04DX003 (sc), vehicle: Klucel (hydroxypropylcellulose) (HPC)) was 72 % of control and the T/C (dose: 100.0 mg/kg/injection, schedule: Q04DX003 (sc), vehicle: Klucel (hydroxypropylcellulose) (HPC)) was 70 % of control. The T/C (dose: 200.0 mg/kg/injection, schedule: Q04DX003 (sc), vehicle: Klucel (hydroxypropylcellulose) (HPC)) was 67 % of control.
